Data reported in paper PMC12603985, “Dissimilar Reactions and Enzymes for Psilocybin Biosynthesis in Inocybe and Psilocybe Mushrooms” (Angewandte Chemie (International Ed. in English), 2025).

Legend:
Type in all cases: biochemical, Inocybe corydalina
IpsK = system: T1, IpsK; experiment: Michaelis-Menten kinetics of phosphotransfer; details: phosphate donor ATP; product assays in TRIS-HCl pH 7.5
T1 construct: N-terminally hexahistidine-tagged; recombinant, purified

IpsM1 = system: T2, IpsM1; experiment: Michaelis-Menten kinetics of methyl transfer; details: methyl donor SAM; product assays in TRIS-HCl pH 7.5
T2 construct: heterologously produced and purified

IpsM2 = system: T3, IpsM2; experiment: Michaelis-Menten kinetics of methyl transfer; details: methyl donor SAM; product assays in TRIS-HCl pH 7.5
T3 construct: heterologously produced and purified

IpsD = system: T4, IpsD; experiment: Michaelis-Menten kinetics of decarboxylation; details: PLP-dependent
T4 construct: obligate dimer predicted by the model; PLP lysine K300

Row | SMILES | Km (IpsK) | Km (IpsM1) | Km (IpsM2) | Km (IpsD)
1 | CN(C)CCc1c[nH]c2cccc(O)c12 [compound 4, psilocin] | 20.5 µM | – | – | –
2 | NCCc1c[nH]c2cccc(O)c12 [compound 5, 4-hydroxytryptamine] | – | 101 µM | 64.5 µM | –
3 | N[C@@H](Cc1c[nH]c2cccc(O)c12)C(=O)O [compound 7, 4-hydroxy-L-tryptophan] | – | – | – | 66 µM
4 | CNCCc1c[nH]c2cccc(O)c12 [compound 10, 10] | 337 µM | 138 µM | 433 µM | –
